Results taken from ChEMBL document CHEMBL5046278, “Synthesis and Evaluation of Novel Tetrahydronaphthyridine CXCR4 Antagonists with Improved Drug-like Profiles” (J Med Chem, 2022).

Experiments:
[1] = Metabolic stability in human liver microsomes assessed compound remaining measured after 10 mins in presence of NADPH; type: ADME, Microsome; settings: read-out: Stability
[2] = Antagonist activity at human CXCR4 receptor expressed in CCRF-CEM cells assessed as inhibition of CXCL12-induced calcium release by calcium flux assay; type: cell-based
[3] = Antagonist activity at mAChR (unknown origin) expressed in CCRF-CEM cells assessed as inhibition of calcium release by calcium flux assay; type: cell-based; settings: Homo sapiens
[4] = Permeability of compound at pH 7.4 incubated for 4 hrs by PAMPA assay; type: ADME; settings: read-out: permeability
Cytochrome P450 2D6 = Cytochrome P450 2D6 (Homo sapiens, UniProt P10635); experiment: Inhibition of recombinant human CYP2D6 using AMMC as substrate preincubated for 30 mins followed by substrate addition measured after 45 mins by fluorescence based assay; type: ADME
Chain of Cytochrome P450 2D6 (P10635 whole entry): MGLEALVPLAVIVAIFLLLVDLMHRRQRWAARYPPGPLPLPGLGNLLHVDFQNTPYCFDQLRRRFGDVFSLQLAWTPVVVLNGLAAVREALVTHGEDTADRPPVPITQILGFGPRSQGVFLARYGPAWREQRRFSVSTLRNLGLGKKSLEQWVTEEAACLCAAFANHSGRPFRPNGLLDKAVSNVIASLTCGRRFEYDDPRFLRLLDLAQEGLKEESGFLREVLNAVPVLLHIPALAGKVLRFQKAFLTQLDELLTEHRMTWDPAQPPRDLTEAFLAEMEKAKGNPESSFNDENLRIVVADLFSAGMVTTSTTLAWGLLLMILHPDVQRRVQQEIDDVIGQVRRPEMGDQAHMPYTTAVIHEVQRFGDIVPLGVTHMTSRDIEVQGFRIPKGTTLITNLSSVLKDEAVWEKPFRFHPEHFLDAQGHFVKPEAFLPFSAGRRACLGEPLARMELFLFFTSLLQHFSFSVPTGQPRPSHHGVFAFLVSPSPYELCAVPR

[5] = Cytotoxicity against human TZM-bl cells assessed as reduction in cell viability incubated for 4 hrs by […] assay; type: toxicity, cell-based; settings: read-out: TC50
[6] = target: T1, Alpha-2A adrenergic receptor (Homo sapiens, UniProt P08913); experiment: Inhibition of alpha 2A adrenergic receptor (unknown origin)
T1 sequence (P08913 whole entry): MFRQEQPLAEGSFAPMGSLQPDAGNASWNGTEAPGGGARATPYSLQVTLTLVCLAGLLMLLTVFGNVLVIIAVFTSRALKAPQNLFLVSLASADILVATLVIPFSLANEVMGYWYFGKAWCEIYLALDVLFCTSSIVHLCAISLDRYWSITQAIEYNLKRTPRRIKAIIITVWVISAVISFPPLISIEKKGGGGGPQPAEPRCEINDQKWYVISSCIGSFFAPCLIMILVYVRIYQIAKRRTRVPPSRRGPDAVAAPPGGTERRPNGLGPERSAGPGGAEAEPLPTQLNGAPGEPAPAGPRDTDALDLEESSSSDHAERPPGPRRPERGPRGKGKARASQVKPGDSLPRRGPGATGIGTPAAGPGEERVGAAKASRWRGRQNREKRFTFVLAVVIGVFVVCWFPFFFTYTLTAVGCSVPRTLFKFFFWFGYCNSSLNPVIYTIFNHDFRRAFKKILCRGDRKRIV

[7] = target: T2, Alpha-2C adrenergic receptor (Homo sapiens, UniProt P18825); experiment: Inhibition of alpha 2C adrenergic receptor (unknown origin)
T2 sequence (P18825 whole entry): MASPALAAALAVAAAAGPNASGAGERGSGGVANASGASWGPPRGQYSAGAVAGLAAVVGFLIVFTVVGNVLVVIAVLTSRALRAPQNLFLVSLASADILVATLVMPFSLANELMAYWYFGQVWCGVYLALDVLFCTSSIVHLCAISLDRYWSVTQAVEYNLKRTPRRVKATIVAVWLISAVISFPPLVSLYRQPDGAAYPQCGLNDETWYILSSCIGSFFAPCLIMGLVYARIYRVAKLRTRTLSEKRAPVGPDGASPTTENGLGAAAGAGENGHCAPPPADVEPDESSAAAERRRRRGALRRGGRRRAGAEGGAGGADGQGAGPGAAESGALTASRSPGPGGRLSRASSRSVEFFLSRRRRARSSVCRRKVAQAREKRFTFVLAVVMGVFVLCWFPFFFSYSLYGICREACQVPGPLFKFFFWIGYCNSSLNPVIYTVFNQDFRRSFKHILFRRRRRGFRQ

Mu-type opioid receptor = Mu-type opioid receptor (Homo sapiens, UniProt P35372); experiment: Inhibition of mu opioid receptor (unknown origin)
Chain of Mu-type opioid receptor (P35372 whole entry): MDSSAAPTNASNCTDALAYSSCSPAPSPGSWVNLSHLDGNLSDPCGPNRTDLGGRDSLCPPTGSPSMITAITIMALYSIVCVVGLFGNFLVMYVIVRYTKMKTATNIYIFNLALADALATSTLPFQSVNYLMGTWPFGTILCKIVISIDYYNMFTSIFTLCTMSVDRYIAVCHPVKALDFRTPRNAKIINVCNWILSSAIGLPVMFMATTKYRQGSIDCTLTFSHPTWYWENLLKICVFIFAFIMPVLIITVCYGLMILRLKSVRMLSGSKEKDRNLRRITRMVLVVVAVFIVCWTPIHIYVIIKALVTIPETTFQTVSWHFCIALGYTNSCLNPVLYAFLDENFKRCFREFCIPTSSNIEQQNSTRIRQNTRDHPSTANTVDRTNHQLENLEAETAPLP

D(2) dopamine receptor = D(2) dopamine receptor (Homo sapiens, UniProt P14416); experiment: Inhibition of dopamine D2 receptor (unknown origin)
Chain of D(2) dopamine receptor (P14416 whole entry): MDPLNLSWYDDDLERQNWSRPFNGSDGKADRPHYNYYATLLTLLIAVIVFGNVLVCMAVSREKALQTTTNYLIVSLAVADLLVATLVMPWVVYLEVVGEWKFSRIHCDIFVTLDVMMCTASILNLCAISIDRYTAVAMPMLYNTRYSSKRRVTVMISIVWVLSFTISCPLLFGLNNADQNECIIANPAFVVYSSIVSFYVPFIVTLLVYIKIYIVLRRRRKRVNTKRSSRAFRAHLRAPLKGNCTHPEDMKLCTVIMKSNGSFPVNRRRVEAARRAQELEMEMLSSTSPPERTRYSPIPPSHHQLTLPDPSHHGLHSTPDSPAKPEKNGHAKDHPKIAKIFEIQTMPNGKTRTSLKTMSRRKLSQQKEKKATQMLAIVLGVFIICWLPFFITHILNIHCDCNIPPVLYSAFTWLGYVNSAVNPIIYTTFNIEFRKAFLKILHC

[8] = target: Neuronal acetylcholine receptor subunit alpha-7 (Homo sapiens, UniProt P36544); experiment: Inhibition of alpha7 nicotinic acetylcholine receptor (unknown origin)
Chain of Neuronal acetylcholine receptor subunit alpha-7 (P36544 whole entry): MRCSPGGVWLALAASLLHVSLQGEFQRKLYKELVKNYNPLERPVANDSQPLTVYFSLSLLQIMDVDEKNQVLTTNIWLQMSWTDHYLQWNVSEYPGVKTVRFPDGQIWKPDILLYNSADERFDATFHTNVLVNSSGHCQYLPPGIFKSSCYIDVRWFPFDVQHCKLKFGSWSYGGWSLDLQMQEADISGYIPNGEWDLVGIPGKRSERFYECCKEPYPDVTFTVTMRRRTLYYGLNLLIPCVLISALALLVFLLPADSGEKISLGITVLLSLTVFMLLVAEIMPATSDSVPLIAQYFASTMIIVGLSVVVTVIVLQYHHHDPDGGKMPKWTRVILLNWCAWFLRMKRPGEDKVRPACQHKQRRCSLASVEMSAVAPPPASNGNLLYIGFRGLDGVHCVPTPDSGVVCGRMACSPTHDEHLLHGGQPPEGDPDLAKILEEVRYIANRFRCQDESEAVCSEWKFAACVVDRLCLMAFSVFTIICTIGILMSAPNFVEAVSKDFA

[9] = Half life in mouse at 3 mg/kg, iv measured after 8 hrs by LC-MS/MS analysis; type: ADME, organism-based; settings: in vivo
[10] = Cmax in mouse at 3 mg/kg, iv measured after 8 hrs by LC-MS/MS analysis; type: ADME, organism-based; set-up: route intravenous, time 8 hrs, dose 3 mg/kg; settings: in vivo
[11] = Drug concentration in mouse plasma at 10 mg/kg, po measured at 12 hrs by LC-MS/MS analysis; type: ADME, organism-based
[12] = AUC(0 to 8 h) in mouse plasma at 3 mg/kg, iv measured at 24 hrs by LC-MS/MS analysis; type: ADME, organism-based; set-up: route intravenous, time 24 hrs, dose 3 mg/kg; settings: in vivo
[13] = AUC(0 to 8 h)in mouse plasma at 3 mg/kg, po measured at 24 hrs by LC-MS/MS analysis; type: ADME, organism-based; set-up: route oral, dose 3 mg/kg, time 24 hrs; settings: in vivo
[14] = AUC(0 to 8 h) in mouse plasma at 30 mg/kg, po measured at 24 hrs by LC-MS/MS analysis; type: ADME, organism-based; set-up: route oral, time 24 hrs, dose 30 mg/kg; settings: in vivo
[15] = Oral bioavailability in mouse at 3 mg/kg measured at 24 hrs by LC-MS/MS analysis; type: ADME, organism-based; settings: in vivo
[16] = Oral bioavailability in mouse at 30 mg/kg measured at 24 hrs by LC-MS/MS analysis; type: ADME, organism-based; settings: in vivo
[17] = Clearence in mouse at 3 mg/kg, iv measured at 24 hrs by LC-MS analysis; type: ADME, organism-based; settings: in vivo
Cytochrome P450 2C19 = Cytochrome P450 2C19 (Homo sapiens, UniProt P33261); experiment: Inhibition of CYP2C19 (unknown origin); type: ADME
Chain of Cytochrome P450 2C19 (P33261 whole entry): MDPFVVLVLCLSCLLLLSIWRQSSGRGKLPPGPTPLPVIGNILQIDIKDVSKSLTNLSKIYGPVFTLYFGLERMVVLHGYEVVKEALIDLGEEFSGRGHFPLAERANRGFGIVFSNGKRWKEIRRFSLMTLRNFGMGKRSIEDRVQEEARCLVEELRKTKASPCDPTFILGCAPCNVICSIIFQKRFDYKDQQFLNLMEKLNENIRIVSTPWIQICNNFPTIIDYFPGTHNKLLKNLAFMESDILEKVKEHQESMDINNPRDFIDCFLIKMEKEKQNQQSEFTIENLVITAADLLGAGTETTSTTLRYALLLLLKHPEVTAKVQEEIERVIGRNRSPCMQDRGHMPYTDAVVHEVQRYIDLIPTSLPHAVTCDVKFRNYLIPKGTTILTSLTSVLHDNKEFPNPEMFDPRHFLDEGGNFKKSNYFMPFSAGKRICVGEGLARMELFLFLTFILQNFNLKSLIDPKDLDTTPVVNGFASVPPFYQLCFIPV

Cytochrome P450 2C9 = Cytochrome P450 2C9 (Homo sapiens, UniProt P11712); experiment: Inhibition of CYP2C9 (unknown origin); type: ADME
Chain of Cytochrome P450 2C9 (P11712 whole entry): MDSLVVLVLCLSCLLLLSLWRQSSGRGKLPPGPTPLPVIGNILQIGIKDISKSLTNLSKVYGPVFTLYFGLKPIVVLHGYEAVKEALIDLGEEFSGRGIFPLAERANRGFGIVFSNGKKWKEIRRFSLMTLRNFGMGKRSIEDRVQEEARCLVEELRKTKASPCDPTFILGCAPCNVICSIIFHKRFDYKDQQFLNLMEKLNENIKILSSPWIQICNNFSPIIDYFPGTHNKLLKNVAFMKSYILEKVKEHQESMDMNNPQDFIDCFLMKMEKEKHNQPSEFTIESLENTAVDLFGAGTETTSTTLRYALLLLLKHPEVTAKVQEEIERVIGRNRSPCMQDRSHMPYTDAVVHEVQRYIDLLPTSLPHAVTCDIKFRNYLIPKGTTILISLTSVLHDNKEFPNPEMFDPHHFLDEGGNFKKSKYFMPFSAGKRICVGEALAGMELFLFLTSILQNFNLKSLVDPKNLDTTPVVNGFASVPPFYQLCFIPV

Homo sapiens [18] = organism: Homo sapiens; experiment: Selectivity index, ratio of IC50 for antagonist activity at mAChR (unknown origin) to IC50 for antagonist activity at human CXCR4 receptor
[19] = target: C-C chemokine receptor type 5 (Homo sapiens) (UniProt P51681); experiment: Inhibition of human CCR5 at 10 uM relative to control
Chain of C-C chemokine receptor type 5 (Homo sapiens) (P51681 whole entry, looked up): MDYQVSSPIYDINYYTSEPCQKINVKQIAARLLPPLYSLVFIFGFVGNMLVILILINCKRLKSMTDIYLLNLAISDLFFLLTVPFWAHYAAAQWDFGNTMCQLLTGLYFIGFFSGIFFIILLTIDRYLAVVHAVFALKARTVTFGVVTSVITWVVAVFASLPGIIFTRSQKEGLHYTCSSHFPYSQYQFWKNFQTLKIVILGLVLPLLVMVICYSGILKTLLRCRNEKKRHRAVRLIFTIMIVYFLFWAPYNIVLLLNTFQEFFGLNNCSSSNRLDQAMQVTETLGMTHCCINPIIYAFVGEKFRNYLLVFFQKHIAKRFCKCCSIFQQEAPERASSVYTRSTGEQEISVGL

Homo sapiens [20] = organism: Homo sapiens; experiment: Selectivity index, ratio of IC50 for Inhibition of human ERG to IC50 for antagonist activity at human CXCR4 receptor expressed in CCRF-CEM cells; type: cell-based
Homo sapiens [21] = organism: Homo sapiens; experiment: Selectivity index, ratio of IC50 for inhibition of alpha 2C adrenergic receptor (unknown origin) to IC50 for antagonist activity at human CXCR4 receptor expressed in CCRF-CEM cells; type: cell-based
Homo sapiens [22] = organism: Homo sapiens; experiment: Selectivity index, ratio of IC50 for inhibition of dopamine D2 receptor (unknown origin) to IC50 for antagonist activity at human CXCR4 receptor expressed in CCRF-CEM cells; type: cell-based
Homo sapiens [23] = organism: Homo sapiens; experiment: Selectivity index, ratio of IC50 for inhibition of M2 mAChR receptor (unknown origin) to IC50 for antagonist activity at human CXCR4 receptor expressed in CCRF-CEM cells; type: cell-based
Homo sapiens [24] = organism: Homo sapiens; experiment: Selectivity index, ratio of IC50 for inhibition of alpha7 nicotinic acetylcholine receptor (unknown origin) to IC50 for antagonist activity at human CXCR4 receptor expressed in CCRF-CEM cells; type: cell-based
Homo sapiens [25] = organism: Homo sapiens; experiment: Selectivity index, ratio of IC50 for inhibition of recombinant human CYP2D6 to IC50 for antagonist activity at human CXCR4 receptor expressed in CCRF-CEM cells; type: cell-based
Homo sapiens [26] = organism: Homo sapiens; experiment: Selectivity index, ratio of IC50 for inhibition of recombinant human CYP2C8 to IC50 for antagonist activity at human CXCR4 receptor expressed in CCRF-CEM cells; type: cell-based

CN(CCCCN(C[C@H]1Cc2ncccc2CN1)[C@H]1CCCc2cccnc21)C1CCC(F)(F)CC1
remaining at 10 min [1]: 61% | IC50 [2]: 24 nM | IC50 [3]: > 17 µM | Papp at 4 h [4]: 31 ×10⁻⁶ cm/s | IC50 (Cytochrome P450 2D6): 13 µM | CC50 at 4 h [5]: > 10 µM | IC50 [6]: 810 nM | IC50 [7]: > 30 µM | IC50 (Mu-type opioid receptor): > 30 µM | IC50 (D(2) dopamine receptor): > 30 µM | IC50 [8]: > 30 µM | half-life [9]: 353 min | Cmax [10]: 116 ng/mL | concentration at 12 h [11]: 14.3 ng/mL | AUC [12]: 265 h/ng/mL | AUC [13]: 34.3 h/ng/mL | AUC [14]: 717 h/ng/mL | bioavailability [15]: 12.9% | bioavailability [16]: 27.1% | clearance [17]: 188 mL/min/kg | IC50 (Cytochrome P450 2C19): > 20 µM | IC50 (Cytochrome P450 2C9): > 20 µM | Selectivity Index (Homo sapiens [18]): > 710 | inhibition [19]: < 5% | Selectivity Index (Homo sapiens [20]): 710 | Selectivity Index (Homo sapiens [21]): > 1000 | Selectivity Index (Homo sapiens [22]): > 1000 | Selectivity Index (Homo sapiens [23]): > 1000 | Selectivity Index (Homo sapiens [24]): > 1000 | Selectivity Index (Homo sapiens [25]): 540 | Selectivity Index (Homo sapiens [26]): > 710
